According to US4594345A, “Methylflavone-8-carboxylates” (Nippon Shinyaku Co. Ltd., priority 1982, dated 1986):

Columns and labels:
SRS-A = test: Anti-SRS-A action (SRS-A induced shrinkage of guinea pig ileus); parameters: species or system guinea pig (Hartley strain male); details: treated five minutes before SRS-A (20 units), 5 min; for SRS-A Inhibition Ratio % 10^-6 M: 1 µM; for SRS-A Inhibition Ratio % 10^-7 M: 0.1 µM
Protocol: (§1) The effect of the compounds (I) of the present invention in the treatment of asthma and allergic diseases were evaluated by a passive cutaneous anaphylaxis assay (PCA) in rats and by measuring anti-SRS-A action using ileus of guinea pigs.
Anti-SRS-A action (An anti-action against slow reacting substance of anaphylaxie)
Hartley strain male guinea pigs (300 to 350 grams body weight) are killed and 1.0 to 1.5 cm of ileus is immediately excised from ileocecal parts and is suspended in 10 ml of Tyrode solution (95% O2 -5% CO2 saturation) containing 10^-7 g/ml of atropine and 10^-6 g/ml of pyrilamine. SRS-A (20 units) (the amount of SRS-A showing the same shrinkage as 5 ng of histamine is defined as one unit) prepared by using sensitized guinea pig lung is given to cause shrinkage there. Then antagonistic action of test compounds treated five minutes ago against the shrinkage is measured and recorded via isotonic transducer. [formula] in which A' is a height of shrinkage of SRS-A + test compound and A is that of SRS-A.

[1] = test system: passive cutaneous anaphylaxis (PCA); test: Passive cutaneous anaphylaxis assay (PCA) in rats; format: in vivo, rat (Wister strain); details: oral 10 mg/kg, one hour before antigen; for inhibition in vivo at 10 mg/kg: Rattus norvegicus, po, 1 h, read-out: PCA Inhibition Ratio %
Protocol: as §1
(i) Antiserum abundant in homocytotropic antibody is prepared by the same method as Tada and Okumura did (cf. Journal of Immunology, volume 106, page 1002, […]). Thus, one mg (calculated as an amount of protein) of DNP-As (2,4-dinitrophenyl-coupled ascaris extract) prepared by methods of Strejan and Campbell (Journal of Immunology, volume 98, page 893, 1971) and of Eisen (Journal of American Chemical Society, volume 85, page 4593, 1953) and […] pertussis vaccine are administered to each paw of Wister strain rats (180 to 200 grams body weights) by dividing the dose by four. Five days later, 0.5 mg of DNP-As is adminstered into muscle of back. Eight days later from the initial immunization, blood is taken from descending aorta under anesthetizing with ether, the resulting serum is stored at -80° C. and is melted before use.
(ii) Effect of tested compounds is investigated as follows:
Anti-serum obtained by the method (i) is diluted with physiological saline solution double by double successively and 0.05 ml of each diluted solution is administered into back of Wister strain rats (140 to 160 grams body weight) subcutaneously. After 72 hours, a solution of 2 mg (calculated as protein) of DNP-As and 2.5 mg of Evand Blue dissolved in 1 ml of physiological saline solution is administered intravenously at a dose of 5 ml/kg. After thirty minutes from antigen solution administration, the animals are killed and diameters of blue spots appeared at the place where antiserum is administered are measured. The PCA test is conducted by the same method as already described using a diluted solutions of antiserum which always show 10 mm or more of spot diameters and the effect of the test compounds is judged. Thus, antiserum diluted solutions are administered to two places in back. Test compounds are administered orally at the dose of 10 mg/kg one hour before administration of antigen solution. From the skin of reacted parts of killed animals, leaked or emitted dyestuff is extracted [cf. Baeck and Steinetz: J. Pharmacol. Exp. Ther., Vol. 131, page 400 (1961)] and the amount of the dyestuff is measured. The inhibition ratio is calculated by the following expression: [formula] in which R' is an amount of dyestuff in the group treated with the test compounds and A is that in the control group.

Compound | SRS-A Inhibition Ratio % 10^-6 M (SRS-A) [%] | SRS-A Inhibition Ratio % 10^-7 M (SRS-A) [%] | inhibition in vivo at 10 mg/kg [1] [%] | PCA Inhibition Ratio % [1] [%]
Cc1c(-c2ccc(C(C)C)cc2)oc2c(C(=O)O)cccc2c1=O [Example 7, 4'-Isopropyl-3-methylflavone-8-carboxylic acid] | 40.8 | 19.0 | 19.7 | 
COC(=O)c1cccc2c(=O)c(C)c(-c3ccccc3)oc12 [Example 8, Methyl 3-methylflavone-8-carboxylate] | 64.9 | 45.0 | 17.4 | 
CCN(CC)C(=O)c1cccc2c(=O)c(C)c(-c3ccccc3)oc12 [Example 9, 3-methylflavone-8-carboxylic acid N,N-diethylamide] | 64.7 | 50.7 | 21.9 | 
CCN(CC)C(=O)c1cccc2c(=O)c(C)c(-c3ccccc3OC)oc12 [Example 12, 2'-methoxy-3-methylflavone-8-carboxylic acid N,N-diethylamide] | 52.4 | 8.3 | 19.2 | 
CCNC(=O)c1cccc2c(=O)c(C)c(-c3ccc(OC)cc3)oc12 [Example 15, 4'-methoxy-3-methylflavoen-8-carboxylic acid N-ethylamide] | 41.9 | 30.3 | 19 | 
CCOc1ccccc1-c1oc2c(C(=O)O)cccc2c(=O)c1C [Example 16, 2'-ethoxy-3-methylflavone-8-carboxylic acid] | 14.8 | 10.4 | 18.6 | 
CCOC(=O)c1cccc2c(=O)c(C)c(-c3ccccc3OCC)oc12 [Example 17, ethyl 2'-ethoxy-3-methylflavone-8-carboxylate] | 72.5 | 50.0 | 21.1 | 
CCNC(=O)c1cccc2c(=O)c(C)c(-c3ccccc3OCC)oc12 [Example 19, 2'-ethoxy-3-methylflavone-8-carboxylic acid N-ethylamide] | 50.0 | 30.0 | 16 | 
CCOC(=O)c1cccc2c(=O)c(C)c(-c3ccccc3OC(C)C)oc12 [Example 21, ethyl 2'-isopropoxy-3-methylflavone-8-carboxylate] | 31.0 | 19.8 | 17.8 | 
CCN(CC)C(=O)c1cccc2c(=O)c(C)c(-c3ccccc3OC(C)C)oc12 [Example 22, 2'-isopropoxy-3-methylflavone-8-carboxylic acid N,N-diethylamide] | 66.7 | 40.0 | 16.1 | 
COc1cccc(-c2oc3c(C(=O)O)cccc3c(=O)c2C)c1OC [Example 23, 2',3'-dimethoxy-3-methylflavone-8-carboxylic acid] | 24.0 | 6.2 | 19.5 | 
CCOC(=O)c1cccc2c(=O)c(C)c(-c3cccc(OC)c3OC)oc12 [Example 24, ethyl 2'.3'-dimethoxy-3-methylflavone-8-carboxylate] | 100 | 18.2 | 20.4 | 
CCN(CC)C(=O)c1cccc2c(=O)c(C)c(-c3ccc(OC)cc3OC)oc12 [Example 28, 2',4'-dimethoxy-3-methylflavone-8-carboxylic acid N,N-diethylamide] | 63.2 | 23.0 | 20.1 | 
CCN(CC)C(=O)c1cccc2c(=O)c(C)c(-c3ccc(OC)c(OC)c3OC)oc12 [Example 30, 2',3',4'-trimethoxy-3-methylflavone-8-carboxylic acid N,N-diethylamide] | 31.0 | 18.0 | 16.3 | 
CCOC(=O)c1cccc2c(=O)c(C)c(-c3ccc(OC)c(OC)c3OC)oc12 [Example 31, ethyl 2',3',4'-trimethoxy-3-methylflaveone-8-carboxylate] | 63.0 | 20.4 |  | 20.2
CCOC(=O)c1cccc2c(=O)c(C)c(-c3ccccc3C)oc12 [Example 34, 2',3-dimethylflavone-8-carboxylic acid ethyl ester] | 71.4 | 47.6 | 19.5 | 
CCOC(=O)c1cccc2c(=O)c(C)c(-c3ccccc3CC)oc12 [Example 37, ethyl 2'-ethyl-3-methylflavone-8-carboxylate] | 100 | 25.0 | 20.5 | 
CCc1ccccc1-c1oc2c(C(=O)N(CC)CC)cccc2c(=O)c1C [Example 38, 2'-ethyl-3-methylflavone-8-carboxylic acid N,N-diethylamide] | 100 | 29.6 | 16 | 
Cc1ccc(-c2oc3c(C(=O)O)cccc3c(=O)c2C)c(C)c1 [Example 39, 2',3,4'-trimethylflavone-8-carboxylic acid] | 5.3 | 3.2 | 37 | 
CCOC(=O)c1cccc2c(=O)c(C)c(-c3ccc(C)cc3C)oc12 [Example 40, ethyl 2',3,4'-trimethylflavone-8-carboxylate] | 73.9 | 8.1 | 17.3 | 
CCN(CC)C(=O)c1cccc2c(=O)c(C)c(-c3ccc(C)cc3C)oc12 [Example 41, 2',3,4'-trimethylflavone-8-carboxylic acid N,N-diethylamide] | 54.1 | 23.4 | 31.4 | 
Cc1ccc(-c2oc3c(C(=O)OCCO)cccc3c(=O)c2C)c(C)c1 [Example 42, beta-hydroxyethyl 2'.3.4'-trimethylflavone-8-carboxylate] | 27.6 | 10.3 | 19.8 | 
CCCCN(CC)C(=O)c1cccc2c(=O)c(C)c(-c3ccc(C)cc3C)oc12 [Example 43, 2',3,4'-trimethylflavone-8-carboxylic acid N-n-butyl-N-ethylamide] | 68.1 | 23.4 | 18.8 | 
CCOC(=O)c1cccc2c(=O)c(C)c(-c3ccc(CC)cc3)oc12 [Example 45, ethyl 4'-ethyl-3-methylflavone-8-carboxylate] | 52.2 | 16.0 | 19 | 
CCCCN(CCCC)C(=O)c1cccc2c(=O)c(C)c(-c3ccc(C(C)C)cc3)oc12 [Example 49, 4'-isopropyl-3-methylflavone-8-carboxylic acid N,N-di-n-butylamide] | 82.8 | 55.6 | 20 | 
CCCCN(CC)C(=O)c1cccc2c(=O)c(C)c(-c3ccc(C(C)C)cc3)oc12 [Example 50, 4'-isopropyl-3-methylflavone-8-carboxylic acid N-n-butyl-N-ethylamide] | 100 | 70.0 | 21.4 | 
CCNC(=O)c1cccc2c(=O)c(C)c(-c3ccc(C(C)C)cc3)oc12 [Example 51, 4'-isopropyl-3-methylflavone-8-carboxylic acid N-ethylamide] | 75.0 | 17.5 | 19 | 
